Results from PMC7031773, “Molecular Mechanisms Responsible for Pharmacological Effects of Genipin on Mitochondrial Proteins” (Biophysical Journal, 2019).

What was measured:
Type in all cases: biochemical
[1] = target: T1, mitochondrial uncoupling protein 1 (UCP1) (Mus musculus, UniProt P12242); experiment: planar lipid bilayer conductance, competition of […] ATP with […] genipin
T1 construct: recombinant mouse UCP1 from E. coli inclusion bodies, reconstituted in lipid bilayers
T1 sequence (P12242 1-307): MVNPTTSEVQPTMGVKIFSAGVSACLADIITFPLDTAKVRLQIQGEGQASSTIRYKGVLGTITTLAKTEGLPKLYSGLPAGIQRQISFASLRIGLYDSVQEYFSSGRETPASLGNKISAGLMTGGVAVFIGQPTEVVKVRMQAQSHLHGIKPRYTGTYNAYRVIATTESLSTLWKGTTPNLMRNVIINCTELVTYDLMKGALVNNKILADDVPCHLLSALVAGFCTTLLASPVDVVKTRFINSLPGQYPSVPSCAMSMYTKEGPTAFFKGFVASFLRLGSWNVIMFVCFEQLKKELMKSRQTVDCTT
Text: The first bar is the inhibition after the addition of ATP

[2] = target: T2, mitochondrial uncoupling protein 3 (UCP3) (Mus musculus, UniProt P56501); experiment: planar lipid bilayer conductance with reconstituted UCP3
T2 construct: recombinant mouse UCP3 from E. coli inclusion bodies, reconstituted in lipid bilayers
T2 sequence (P56501 1-308): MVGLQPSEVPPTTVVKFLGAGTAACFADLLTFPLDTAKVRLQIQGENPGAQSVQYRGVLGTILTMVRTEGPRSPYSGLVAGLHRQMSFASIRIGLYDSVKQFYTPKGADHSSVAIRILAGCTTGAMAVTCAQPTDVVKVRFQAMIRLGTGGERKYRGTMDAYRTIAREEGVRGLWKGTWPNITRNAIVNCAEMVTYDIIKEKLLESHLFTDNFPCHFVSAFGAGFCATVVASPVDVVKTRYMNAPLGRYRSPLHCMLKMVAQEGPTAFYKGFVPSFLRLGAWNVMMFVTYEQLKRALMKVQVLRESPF

[3] = target: T3, mitochondrial uncoupling protein 2 (UCP2) (Mus musculus, UniProt P70406); experiment: planar lipid bilayer conductance with reconstituted UCP2
T3 construct: recombinant mouse UCP2 from E. coli inclusion bodies, reconstituted in lipid bilayers
T3 sequence (P70406 1-309): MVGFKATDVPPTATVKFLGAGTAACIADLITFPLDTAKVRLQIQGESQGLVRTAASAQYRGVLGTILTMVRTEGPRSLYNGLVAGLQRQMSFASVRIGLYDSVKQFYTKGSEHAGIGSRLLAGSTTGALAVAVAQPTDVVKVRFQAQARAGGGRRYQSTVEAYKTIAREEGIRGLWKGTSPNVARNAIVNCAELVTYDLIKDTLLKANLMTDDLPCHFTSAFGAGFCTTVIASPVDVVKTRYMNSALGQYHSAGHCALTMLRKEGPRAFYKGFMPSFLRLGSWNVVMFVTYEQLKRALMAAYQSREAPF

[4] = target: T4, mitochondrial complex III (CIII) (Bos taurus, UniProt P00157); experiment: cytochrome c reduction by isolated complex III, […] genipin
T4 construct: gene MT-CYB; complex III isolated from bovine heart

[5] = target: T1, mitochondrial uncoupling protein 1 (UCP1); experiment: planar lipid bilayer conductance with reconstituted UCP1; LC-MS/MS of covalent adducts; arginine mutants; competition with ATP
[6] = target: T1, mitochondrial uncoupling protein 1 (UCP1); experiment: planar lipid bilayer conductance with reconstituted UCP1

Question: With `Nc1ncnc2c1ncn2[C@@H]1O[C@H](COP(=O)(O)OP(=O)(O)OP(=O)(O)O)[C@@H](O)[C@H]1O` [ATP] as the compound, how does the “planar lipid bilayer conductance, competition of 3 mM ATP with 50 μM genipin” value [1] read?
Answer: Competitive inhibition of UCP1 with genipin (GNP) and ATP. The first bar is the inhibition after the addition of ATP

Question: Which IC50 [2] does the source give for `COC(=O)C1=CO[C@@H](O)[C@@H]2C(CO)=CC[C@H]12` [GNP, genipin] here?
Answer: 41 ± 12 µM

Question: What about the IC50 [3] of the same compound?
Answer: 94 ± 24 µM

Question: What about the activity at 50 µM [4] of the same compound?
Answer: 63 ± 7%

Question: What about the IC50 [5] of the same compound?
Answer: 133 ± 12 µM

Question: With `COC(=O)C1=CO[C@@H](O[C@@H]2O[C@H](CO)[C@@H](O)[C@H](O)[C@H]2O)[C@@H]2C(CO)=CC[C@H]12` [geniposide] as the compound, how does the EC50 [6] read?
Answer: 693 ± 90 µM
